Reference: patent US6452028B1, “Vitamin D3 analogs” (Hoffmann-La Roche Inc., priority 1996, dated 2002)

Columns and labels:
[1] = tested on: HL-60 cells; assay: HL-60 cell differentiation (NBT reduction); type: cell-based; conditions: concentration leading to 50% of maximal differentiation achieved with 100-1000 nM calcitriol, 3 days, read-out: ED50 (the source's name)
Experimental: HL-60 Cell Differentiation
The induction of differentiation of HL-60 cells was assayed by measuring their oxidative burst potential via the reduction of nitrobluetetrazolium (NBT).
HL-60 cells (30,000 cells/90 μl of RPMI/supplemented medium) were seeded into flat-bottomed microtiter wells. Immediately after seeding, 10 μl of test compounds diluted in supplemented RPMI medium were added to the wells at the same time to yield final concentrations between 10^−11 and 10^−6 M (starting from stock solutions of 10^−2 M in ethanol stored at −20° C. and protected from light).

[2] = tested on: HaCaT cell line; assay: Inhibition of keratinocyte proliferation (3H-thymidine uptake); type: cell-based, human; conditions: 3H-thymidine incorporation after 6 days of culture in presence of the test compound
[3] = tested on: MCF-7 breast carcinoma cells; assay: Antiproliferative activity in MCF-7 breast carcinoma cells (MTT); type: cell-based; conditions: inhibition of cell growth, day 3 to 7 post drug addition, Reed and Muench formula
[4] = tested on: T47-D breast carcinoma cells; assay: Antiproliferative activity in T47-D breast carcinoma cells (MTT); type: cell-based; conditions: inhibition of cell growth, day 3 to 7 post drug addition, Reed and Muench formula

Compound	EC50 [1] [nM]	IC50 [3] [nM]	further results
1,25-Dihydroxy-16,23Z-diene-26,27-hexafluoro-20-epi-19-nor-cholecalciferol	4.5	–	–
C=C1C(=CC=C2CCCC3(C)C(C(C)C/C=C\C(O)(C(F)(F)F)C(F)(F)F)=CCC23)CC(O)CC1O (stereo not drawn) [1,25-Dihydroxy-16,23Z-diene-26,27-hexafluoro-20-epi-cholecalciferol]	2.3	–	–
C=C1C(=CC=C2CCCC3(C)C(C(C)CCCC(C)(C)O)=CCC23)CC(O)CC1O (stereo not drawn) [1,25-Dihydroxy-16-ene-20-epi-cholecalciferol]	2.5	–	IC50 [2]: 4 nM
C=C1C(=CC=C2CCCC3(C)C(C(C)CC#CC(C)(C)O)=CCC23)CC(O)CC1O (stereo not drawn) [1,25-Dihydroxy-16-ene-23-yne-20-epi-cholecalciferol]	15	–	IC50 [2]: 93 nM
CCC(O)(C#CCC(C)C1=CCC2C(=CC=C3CC(O)CC(O)C3)CCCC12C)CC (stereo not drawn) [1,25-Dihydroxy-16-ene-23-yne-26,27-bishomo-19-nor-20-epi-cholecalciferol]	–	12	–
C=C1/C(=C\C=C2/CCC[C@]3(C)C([C@@H](C)CC#CC(O)(CC)CC)=CC[C@@H]23)C[C@@H](O)C[C@@H]1O [1,25-Dihydroxy-16-ene-23-yne-26,27-bishomo-20-epi-chole-calciferol]	–	11	–
C=C1/C(=C\C=C2/CCC[C@]3(C)C([C@@H](C)CC#CC(O)(C(F)(F)F)C(F)(F)F)=CC[C@@H]23)C[C@@H](O)C[C@@H]1O [1,25-Dihydroxy-16-ene-23-yne-26,27-hexafluoro-20-epi-cholecalciferol]	2	0.95	IC50 [4]: 6.7 nM; IC50 [2]: 50 nM
C=C1/C(=C\C=C2/CCC[C@]3(C)[C@@H]([C@H](C)CCCC(C)(C)O)CC[C@@H]23)C[C@@H](O)C[C@@H]1O [1,25-Dihydroxy-cholecalciferol, reference compound]	–	–	IC50 ([2]; Homo sapiens, HaCaT): 55 nM
C=C1/C(=C\C=C2/CCC[C@]3(C)C([C@@H](C)C/C=C/C(O)(C(F)(F)F)C(F)(F)F)=CC[C@@H]23)C[C@@H](O)C[C@@H]1F [1α-Fluoro-25-hydroxy-16,23E-diene-26,27-hexafluoro-20-epi-cholecalciferol]	–	9	–
C=C1C(=CC=C2CCCC3(C)C(C(C)C/C=C\C(O)(C(F)(F)F)C(F)(F)F)=CCC23)CC(O)CC1F (stereo not drawn) [1α-Fluoro-25-hydroxy-16,23Z-diene-26,27-hexafluoro-20-epi-cholecalciferol]	20	–	–
C=C1/C(=C\C=C2/CCC[C@]3(C)C([C@@H](C)C/C=C/C(O)(CC)CC)=CC[C@@H]23)C[C@@H](O)C[C@@H]1F [1α-Fluoro-25-hydroxy-16-23E-diene-26,27-bishomo-20-epi-cholecalciferol]	–	30	–
C=C1C(=CC=C2CCCC3(C)C(C(C)CC#CC(O)(C(F)(F)F)C(F)(F)F)=CCC23)CC(O)CC1F (stereo not drawn) [1α-Fluoro-25-hydroxy-16-ene-23-yne-26,27-hexafluoro-20-epicholecalciferol]	–	11	–
